# In patent US7138122B2, “Therapeutic systems” (Enzacta R & D Limited, priority 1997, dated 2006):
# “Also recorded” adds a separate entry of the source.
# T1: NQO2 (Homo sapiens, UniProt P16083)
# T1 sequence (P16083 1-231): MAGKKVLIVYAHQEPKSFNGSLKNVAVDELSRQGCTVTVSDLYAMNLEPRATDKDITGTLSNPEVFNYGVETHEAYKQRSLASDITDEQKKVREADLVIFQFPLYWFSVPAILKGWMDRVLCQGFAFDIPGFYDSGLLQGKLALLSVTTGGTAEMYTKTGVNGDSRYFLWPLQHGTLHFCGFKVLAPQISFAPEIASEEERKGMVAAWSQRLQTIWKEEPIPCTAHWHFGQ
# T2: Rat DT-diaphorase (Rattus norvegicus, UniProt P05982)
# T2 sequence (P05982 2-274 limits assumed): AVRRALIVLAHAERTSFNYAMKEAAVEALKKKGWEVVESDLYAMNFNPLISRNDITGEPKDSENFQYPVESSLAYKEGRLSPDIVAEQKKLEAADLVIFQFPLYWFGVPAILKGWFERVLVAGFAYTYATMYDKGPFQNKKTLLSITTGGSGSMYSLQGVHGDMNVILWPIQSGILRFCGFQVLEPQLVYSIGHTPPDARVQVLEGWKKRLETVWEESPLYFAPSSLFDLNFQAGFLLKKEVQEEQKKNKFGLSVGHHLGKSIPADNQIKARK
# B1: Recombinant human NQO2 (Homo sapiens) (protein)
# chain: MAGKKVLIVYAHQEPKSFNGSLKNVAVDELSRQGCTVTVSDLYAMNLEPRATDKDITGTLSNPEVFNYGVETHEAYKQRSLASDITDEQKKVREADLVIFQFPLYWFSVPAILKGWMDRVLCQGFAFDIPGFYDSGLLQGKLALLSVTTGGTAEMYTKTGVNGDSRYFLWPLQHGTLHFCGFKVLAPQISFAPEIASEEERKGMVAAWSQRLQTIWKEEPIPCTAHWHFGQ
# notes: restriction site were added to the 5′ and 3′-ends of the full-length NQO2 cDNA; made in house; host or cells: E. coli (expression vector pKK233-2, plasmid pKK-hNQO2)
# What was measured:
# NQO2 [1] = molecular target: T1, NQO2; assay: Co-substrate activity with NQO2 for reduction of CB 1954 (HPLC); format: biochemical; design: restriction site were added to the 5′ and 3′-ends of the full-length NQO2 cDNA; made in house; host or cells: E. coli (expression vector pKK233-2, plasmid pKK-hNQO2); details: for ability to act as co-substrate for NQO2: reduction of CB 1954 by NQO2; for RELATIVE RATE OF REDUCTION: CB 1954 reduction by NQO2, co-substrate initial 500 μM, CB 1954 initial 100 μM; for Km: of NQO2 for the co-substrate, CB1954 as electron acceptor (100 μM); for kcat: of NQO2 with the co-substrate, CB1954 as electron acceptor
# Procedure: The effect of various co-substrates on CB 1954 was determined as above but NADH. NADPH or NMNH was substituted for the NRH and CB 1954 was used at a fixed concentration of 100 μM. The enzyme concentration was 5 μg/ml. The reduction of CB 1954 was monitored by measuring both the decrease in its corresponding peak area on the HPLC trace and the increase in the area of the peak corresponding to the reduction product 5-(aziridin-1-yl)-4-hydroxylamino-2-nitrobenzamide. The relative rates of reduction were determined at 10% reduction of CB1954 from a graph plotting CB 1954 reduction against time. The time axis was normalised to the equivalent of 10 μg/ml of NQO2.
# The activity of various potential co-substrates was determined by HPLC analysis in the presence of CB1954 and NQO2. To determine the kinetic parameters NQO2 (1 μg/ml) was incubated with NRH (5000 μM) and CB1954 at different concentrations (0.1 to 2 mM) in sodium phosphate buffer (10MM, pH 7) at 37° C. At various times, aliquots (10 μl) were injected onto a Partisphere SCX (250×4.5 mm) HPLC column (Whatman Ltd) and eluted isocratically (1.5 ml/min) with 50 mM aqueous sodium phosphate containing 1% methanol. The eluate was continuously monitored for absorption at 320 nm. […] The reduction of CB1954 was monitored by quantifying the increase in the area of the peak corresponding to the reduction product 5-(aziridin-1-yl)-4-hydroxylamino-2-nitrobenzamide. All the assays were initiated by addition of the enzyme and performed in duplicate. The kinetic parameters were calculated by plotting the initial rate of reduction at each concentration of CB1954 against that concentration and fitting the data to the Michaelis-Menton equation using a computer programme (Fig P). Values were confirmed by transforming the data and fitting it to various linear forms of the equation by regression analysis.
# The effect of various co-substrates on CB1954 reduction was determined as above but the co-substrate was substituted for the NRH and C1954 was used at a fixed concentration of 100 μM. The enzyme concentration was 1 or 5 μg/ml. The reduction of CB1954 was monitored by measuring both the decrease in its corresponding peak area on the HPLC trace and the increase in the area of the peak corresponding to the reduction product 5-(aziridin-1-yl)-4-hydroxylamino-2-nitrobenzamide. The relative rates of reduction were determined at 10% reduction of CB1954 from a graph plotting CB1954 reduction against time. The time axis was normalised to the equivalent of 10 μg/ml of NQO2. The kinetic parameters of NQO2 for the various co-substrates was determined as for CB1954 except that the initial concentration of CB1954 was constant at 100 μm whilst that of the co-substrate was varied from 0 to 2 mM. The enzyme concentration was 0.5 μg/ml.
# Rat DT-diaphorase = molecular target: T2, Rat DT-diaphorase; assay: Use of co-substrates by rat DT diaphorase for reduction of CB1954; format: biochemical
# E. coli nitroreductase = E. coli nitroreductase (Escherichia coli, UniProt P38489); assay: Use of co-substrates by E. coli nitroreductase for reduction of CB1954; format: biochemical
# Sequence of E. coli nitroreductase (P38489 whole entry): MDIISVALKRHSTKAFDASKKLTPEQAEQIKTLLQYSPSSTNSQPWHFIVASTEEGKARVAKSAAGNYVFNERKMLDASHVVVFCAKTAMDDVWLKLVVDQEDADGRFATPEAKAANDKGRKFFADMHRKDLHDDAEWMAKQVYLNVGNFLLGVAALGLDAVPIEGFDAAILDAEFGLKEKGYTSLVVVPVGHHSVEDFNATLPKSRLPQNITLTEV
# wild-type V79 cells = assay: Uptake of NQO2 co-substrates into V79 cells (fluorimetry); format: in vitro ADME, Chinese hamster; details: for uptake / internalisation into cells: 1 mM co-substrate, 37° C.
# Procedure: The uptake of various NQO2 co-substrates into V79 cells was determined by fluorimetry. V79 cells were seeded into T25 tissue culture flasks and allowed to grow to confluence (^−2×10^7 cells). The growth medium was removed and replaced with 10 mls of fresh medium containing 1 mM of co-substrate and incubated at 37° C. At various the medium was removed and the cell monolayer washed ×5 with 50 mL of ice cold PBS. The cells were removed by trypsinisation and pelleted by centrifugation. The cell pellet was resuspended in alkaline lysis buffer (KOH 0.5M; 36% W/v CsCl; in 50% aqueous ethanol) disrupted by agitation and the cell debris removed by centrifugation at 10,000 g. The concentration of co-substrate was determined by fluorimetry (excitation 360 nm, emission 450 nm, slits 5nm) by diluting 100μl of supernatant in 2.9ml of 100 mM sodium bicarbonate buffer pH 10. The fluorimeter was calibrated against the appropriate standard. All measurements were done in triplicate.
# [2] = Effect on the body weight of normal mice (in vivo toxicity); details: intravenous (tail vein), 8 day period
# Procedure: Mice (6 groups of 3) were injected intravenously (tail vein) with either compound 1 or 2 at the doses shown and the weight of the mice was monitored over an 8 day period. Control mice received vehicle (phosphate buffered saline) only.
# [3] = system: human T98G gliobastoma cells; assay: Cytotoxicity of CB 1954 on T98G glioblastoma cells with NQO2 co-substrates; details: 144 hr in presence of CB 1954
# Procedure: Cells in exponential phase of growth were trypsinised, seeded in 96 well plates at a density of 5×10^4 cells per well (100 μl) and permitted to recover for 24 hours. Then 50 μl of medium was removed and replaced with 50 μl of fresh medium containing 200 μM NRH to give a final concentration of 100 μM. Serial dilutions of CB 1954 (8 of 3.66×) were performed in situ giving final concentrations of 1000–0.46 μM. Cells were then incubated with drug for 72 hours at 37° C. The plates were fixed and stained with sulforhodamine-B; the absorption at 590 nm read and results were expressed as percentage of control growth. The IC50 values were evaluated by interpolation.
# The cells were treated as for V79 cells but were treated for 144 hr in presence of CB 1954.
# NQO2 [4] = molecular target: T1, NQO2; assay: Inhibition of NQO2 by flavones; format: biochemical; details: competitive with respect to NRH; read-out: K1 (competitive inhibitor with respect to NRH)
# [5] = substrate: NC(=O)c1cc(N2CC2)c([N+](=O)[O-])cc1[N+](=O)[O-]; assay: Kinetic parameters of NQO2 with respect to CB 1954 (HPLC); format: biochemical, human; details: other: with respect to CB 1954; NRH as co-substrate; pH 7.0; 37.0 °C
# Procedure: Recombinant human NQO2 was prepared in E. coli. A NcoI and a HindIII restriction site were added to the 5′ and 3′-ends of the full-length NQO2 cDNA, respectively, using a PCR method with primers and nucleotide sequences derived from the 5′ and 3′-ends of the cDNA. The PCR product was resolved over a 1% agarose gel and then extracted using the QiAquick Gel Extraction Kit (Qiagen Inc). The gel-purified PCR product was cloned into PCRII vector from the TA cloning kit (Invitrogen Co) and the correct sequence of the PCR product was checked by dideoxy sequencing. The resulting construct was religated into the E. coli expression vector, pKK233-2 (Pharmacia) through the engineered NcoI and HindIII restriction sites. The expression plasmid was designated pKK-hNQO2. […] The purified NQO2 preparation was analysed by SDS-PAGE electrophoresis. The activity of NQO2 in the presence of CB 1954, and various cofactors was determined by HPLC. […] The eluate was continuously monitored for absorption at 320 nm. […] The reduction of CB 1954 was monitored by quantifying the increase in the area of the peak corresponding to the reduction product 5-(aziridin-1-yl)-4-hydroxylamino-2-nitrobenzamide. […] The kinetic parameters were calculated by plotting the initial rate of reduction at each concentration of CB 1954 against that concentration and fitting the data to the Michales-Menton equation using a computer programme (FigP). […]
molecule,measurement,setting,value
NC(=O)C1=CN(CCc2ccccc2)C=CC1 [Compound 11],ability to act as co-substrate for NQO2,NQO2 [1],not cosubstrates; also recorded: poor co-substrate
NC(=O)C1=CN([C@@H]2O[C@H](COP(=O)(O)OP(=O)(O)OC[C@H]3O[C@@H](n4cnc5c(N)ncnc54)[C@H](O)[C@@H]3O)[C@@H](O)[C@H]2O)C=CC1 [NADH],ability of rat DT diaphorase to use as co-substrate,Rat DT-diaphorase,can use NADH as a co-substrate
same,ability of E. coli nitroreductase to use as co-substrate,E. coli nitroreductase,can use NADH as a co-substrate
same,RELATIVE RATE OF REDUCTION,NQO2 [1],1.0
same,ability to act as co-substrate for NQO2,NQO2 [1],not readily catalysed; also recorded: not cosubstrates; also recorded: poor co-substrates
"NC(=O)C1=CN(Cc2ccccc2)C=CC1 [Compound 8, 1-benzyl-dihydronicotinamide]",ability to act as co-substrate for NQO2,NQO2 [1],not cosubstrates
same,ability to act as co-substrate for NQO2,NQO2 [1]; listed as compound 8,not co-substrates
"NC(=O)C1=CN(CCCS(=O)(=O)O)C=CC1 [Compound 1, 1-(3-sulfonatopropyl)-dihydronicotinamide]",uptake / internalisation into cells,wild-type V79 cells,excluded from the cells; also recorded: do not expect it to enter cells and this is what is observed
same,uptake / internalisation into cells,wild-type V79 cells; listed as compound 1,excluded from cells; also recorded: not able to enter the cells
same,ability of rat DT diaphorase to use as co-substrate,Rat DT-diaphorase,able to use
same,ability of E. coli nitroreductase to use as co-substrate,E. coli nitroreductase,not able to use either
same,intrinsic toxicity as judged by body weight loss,[2],no evidence of intrinsic toxicity
same,increase of the cytotoxicity of CB 1954 by added co-substrate,[3],did not potentiate; also recorded: no potentialtion is observed
same,Km,NQO2 [1],1080 ± 135 µM
same,kcat,NQO2 [1],25.5 s⁻¹
"O=c1c(O)c(-c2ccc(O)c(O)c2)oc2cc(O)cc(O)c12 [Quercetin, 3,5,7,3′,4′-pentahydroxyflavone]",Ki,NQO2 [4],27 nM
NC(=O)C1=CN([C@@H]2O[C@H](COP(=O)(O)O)[C@@H](O)[C@H]2O)C=CC1 [NMNH],RELATIVE RATE OF REDUCTION,NQO2 [1],5.6
O=C(O)C1=CN(C2O[C@H](COP(=O)(O)O)[C@@H](O)[C@H]2O)C=CC1 (some centres unmarked) [nicotinic acid mononucleotide (reduced)],ability to act as co-substrate for NQO2,NQO2 [1],not co-substrates
"NC(=O)CN1C=CCC(C(N)=O)=C1 [Compound 2, 1-(carboxamidomethyl)-dihydronicotinamide]",internalisation relative to NRH,wild-type V79 cells,about 10 % of NRH
same,uptake / internalisation into cells,wild-type V79 cells,poorly internalised
same,ability of rat DT diaphorase to use as co-substrate,Rat DT-diaphorase,able to use
same,ability of E. coli nitroreductase to use as co-substrate,E. coli nitroreductase,not able to use either
same,intrinsic toxicity as judged by body weight loss,[2],no evidence of intrinsic toxicity
same,Km,NQO2 [1],198 ± 19 µM
same,kcat,NQO2 [1],12.5 s⁻¹
NC(=O)C1=CN([C@@H]2O[C@H](COP(=O)(O)OP(=O)(O)OC[C@H]3O[C@@H](n4cnc5c(N)ncnc54)[C@H](OP(=O)(O)O)[C@@H]3O)[C@@H](O)[C@H]2O)C=CC1 [NADPH],RELATIVE RATE OF REDUCTION,NQO2 [1],1.24
same,ability to act as co-substrate for NQO2,NQO2 [1],not readily catalysed; also recorded: not cosubstrates; also recorded: poor co-substrates
B1,Km,[5],263 ± 13 µM
same,kcat,[5],6.01 s⁻¹
